Measured values taken from patent US20090221624A1, “4-AMINOQUINOLINE COMPOUNDS FOR TREATING VIRUS-RELATED CONDITIONS” (priority 2005, published 2009).

What was measured:
[1] = tested on: SINV (SR19-F-luc cells); assay: SINV antiviral activity, SR19-F-luc cells, Firefly luciferase; assay type: cell-based; conditions: Sindbis virus; for inhibition at 25 µM: primary screening, 25 μM final concentration, 24 hours, percent inhibition of viral replication, read-out: SINV Inh; for EC50: secondary screening, SR19-F-luc cells
[2] = tested on: WNV (WN-hRuPac cells); assay: WNV antiviral activity, WN-hRuPac cells, Renilla luciferase; assay type: cell-based, West Nile virus; conditions: for EC50 / inhibition at 25 µM: West Nile virus; for EC50: Secondary Data, WNV, read-out: WNV EC50; for inhibition at 25 µM: primary screening, 25 μM final concentration, 24 hours, percent inhibition of viral replication, read-out: WNV Inh; for WNV TI: therapeutic index CC50/EC50, WNV
[3] = in vitro
[4] = tested on: YFV (YF-hRuPac cells); assay: microbe, parasite or virus in culture; assay type: cell-based, yellow fever virus; conditions: for inhibition at 25 µM / EC50: Yellow fever virus; for inhibition at 25 µM: 24 h, read-out: YFV Inh; for EC50: read-out: YFV EC50
[5] = tested on: RSV minigenome; assay: RSV minigenome-dependent β-galactosidase expression assay (RSV β-Gal); assay type: cell-based, respiratory syncytial virus; conditions: for EC50 / inhibition at 25 µM: human respiratory syncytial virus; for EC50: Secondary Data, RSV, read-out: RSV EC50; for inhibition at 25 µM: primary screening, 25 μM final concentration, 24 hours, percent inhibition of viral replication, read-out: RSV Inh; for RSV TI: therapeutic index CC50/EC50, RSV
[6] = tested on: DNG (D2-hRuPac cells); assay: DNG antiviral activity, D2-hRuPac cells, Renilla luciferase; assay type: cell-based, Dengue fever virus; conditions: Dengue virus, secondary screening
[7] = tested on: HCV replicon (Clone A cells, Huh7, subgenomic hepatits C virus RNA); assay: HCV Neo screening assay (HCV replicon, NPTII ELISA); assay type: cell-based, hepatitis C virus; conditions: for inhibition at 25 µM / EC50: Hepatitis C virus, Huh-7; for inhibition at 25 µM: primary screening, 25 μM final concentration, 24 hours, percent inhibition of viral replication, read-out: HCV Inh; for EC50: Secondary Data, HCV; for HCV TI: therapeutic index CC50/EC50, HCV
[8] = tested on: EBOV minigenome; assay: microbe, parasite or virus in culture; assay type: cell-based, Ebola virus; conditions: Zaire ebolavirus; for inhibition at 25 µM: 24 h, read-out: EBOV Inh; for EC50: read-out: EBOV EC50

Row | SMILES | inhibition at 25 µM [1] | EC50 [1] | EC50 [2] | inhibition at 25 µM [2] | CC50 ([3]; DNG CC50) | CC50 ([3]; EBOV CC50) | CC50 ([3]; HCV CC50) | CC50 ([3]; RSV CC50) | CC50 ([3]; SINV CC50) | CC50 ([3]; WNV CC50) | CC50 ([3]; YFV CC50) | inhibition at 25 µM [4] | EC50 [4] | EC50 [5] | inhibition at 25 µM [5] | RSV TI [5] | EC50 [6] | inhibition at 25 µM [7] | inhibition at 25 µM [8] | EC50 [8] | other results
1 | CCOC(=O)c1cnc2ccccc2c1NCc1ccco1 [Compound 30] | -9.95% | ≥ 75 µM | 4.6 µM | 93.7% | 55.4 µM | 55.4 µM | ≥ 75 µM | 55.4 µM | 55.4 µM | 55.4 µM | 55.4 µM | 92.5% | 5.5 µM | 1.45 µM | 80.3% | 38.18 | 12 µM | -18.1% | 71% | 12.6 µM | WNV TI [2]: 12.04; YFV TI [4]: 10.07
2 | CCOC(=O)c1cnc2ccc(OCC)cc2c1Nc1ccc(I)cc1 [Compound 32] | -17.6% | ≥ 75 µM | ≥ 75 µM | -2.69% | ≥ 75 µM | ≥ 75 µM | ≥ 75 µM | ≥ 75 µM | ≥ 75 µM | ≥ 75 µM | ≥ 75 µM | -16.9% | ≥ 75 µM | 3.5 µM | 48.3% | 21.43 | ≥ 75 µM | -11.1% | 31.9% | 75 µM | 
3 | CCOC(=O)c1cnc2ccc(OCC)cc2c1Nc1ccccc1CC [Compound 34] | 34% | ≥ 75 µM | 39.1 µM | 60.4% | 61.9 µM | 61.9 µM | 35.6 µM | 61.9 µM | 61.9 µM | 61.9 µM | 61.9 µM | 58.5% | 23 µM | 5.08 µM | 77.3% | 12.19 | ≥ 75 µM | 78.6% | 53.8% | 75 µM | WNV TI [2]: 1.58; YFV TI [4]: 2.69; EC50 [7]: 11.4 µM; HCV TI [7]: 3.12
4 | CCOC(=O)c1cnc2c(C)cc(C)cc2c1NCc1ccco1 [Compound 35] | 44.9% | ≥ 75 µM | 2.52 µM | 104% | 37.2 µM | 37.2 µM | 53 µM | 37.2 µM | 37.2 µM | 37.2 µM | 37.2 µM | 98.7% | 3.03 µM | 1.04 µM | 89.9% | 35.77 | 11.1 µM | 67.5% | 75.2% | 6.64 µM | WNV TI [2]: 14.76; YFV TI [4]: 12.28; EC50 [7]: 8.35 µM; HCV TI [7]: 6.34
5 | CCOC(=O)c1cnc2ccc(OCC)cc2c1NCc1ccco1 [Compound 36] | -58.8% | ≥ 75 µM | 2.38 µM | 93.7% | 47.3 µM | 47.3 µM | 21.3 µM | 47.3 µM | 47.3 µM | 47.3 µM | 47.3 µM | 94.4% | 6.78 µM | 1.46 µM | 100% | 32.4 | 16.5 µM | 135% | 15.5% | 75 µM | WNV TI [2]: 19.87; YFV TI [4]: 6.98; EC50 [7]: 6 µM; HCV TI [7]: 3.55
6 | CCOC(=O)c1cnc2c(ccc3ccccc32)c1NCc1ccco1 [Compound 37] | 10.3% | ≥ 75 µM | 4.08 µM | 87.8% | 41.6 µM | 41.6 µM | 56 µM | 41.6 µM | 41.6 µM | 41.6 µM | 41.6 µM | 94.4% | 2.75 µM | 1.38 µM | 58% | 30.12 | 25.5 µM | 72.9% | 15.7% | 75 µM | WNV TI [2]: 10.19; YFV TI [4]: 15.12; EC50 [7]: 13 µM; HCV TI [7]: 4.31
7 | CCOC(=O)c1cnc2ccc(C)cc2c1Nc1ccc(N2CCOCC2)cc1 [Compound 38] | 43.2% | ≥ 75 µM |  | 36.5% | ≥ 75 µM | ≥ 75 µM | 19 µM | ≥ 75 µM | ≥ 75 µM | ≥ 75 µM | ≥ 75 µM | 70.8% | 38.7 µM | 5.05 µM | 98.2% | 14.85 | ≥ 75 µM | 88.4% | -36.4% | 75 µM | YFV TI [4]: 1.94; EC50 [7]: 9.5 µM; HCV TI [7]: 2
8 | CCOC(=O)c1cnc2ccc(C)cc2c1NCc1ccco1 [Compound 39] | 71.9% | ≥ 75 µM | 5.46 µM | 102% | 26.9 µM | 26.9 µM | ≥ 75 µM | 26.9 µM | 26.9 µM | 26.9 µM | 26.9 µM | 96.6% | 3.01 µM | 1.47 µM | 91.6% | 18.33 | 7.1 µM | 22.4% | 64.1% | 7.22 µM | WNV TI [2]: 4.94; YFV TI [4]: 8.95
